In patent publication US20170305882A1, “BENZYL SUBSTITUTED INDAZOLES AS BUB1 KINASE INHIBITORS” (Bayer Pharma Aktiengesellschaft, priority 2014, published 2017):

What was measured:
[1] = target: T1, (recombinant) catalytic domain of human Bub1 (amino acids 704-1085) (Homo sapiens, UniProt O43683); experiment: Bub1 kinase assay (TR-FRET); format: biochemical; conditions: ATP 10 μM, 60 min reaction, pH 7.5; read-out: Biological Assay 1: Bub1 kinase assay median IC50
T1 construct: catalytic domain of human Bub1 (amino acids 704-1085); 6xHis (N); made in house; host or cells: Hi5 insect cells

[2] = system: HeLa human cervical tumor cells; experiment: Proliferation assay (HeLa cell line); format: cell-based; conditions: 96 h, 4 days incubation, crystal violet, read-out: Biological Assay 2: Proliferation assay (HeLa cell line) median IC50
From the text: Human tumour cells were originally obtained from the American Type Culture Collection (ATCC), the Deutsche Sammlung von Mikroorganismen und Zellkulturen (DSMZ, German Collection of Microorganisms and Cell Cultures), or Epo GmbH Berlin.

[3] = system: HeLa human cervical tumor cells; experiment: Proliferation Assay (HeLa + Paclitaxel); format: cell-based; conditions: 3 nM paclitaxel, test substance 92 hours; read-out: Biological Assay 3: Proliferation Assay (HeLa + Paclitaxel) IC50
From the text: Proliferation Assay (HeLa+Paclitaxel):

[4] = system: pre-induced phospho-histone 2A (kinase activity of Bub1); experiment: H2A Abrogation-Assay (cell-based mechanistic assay, pre-treatment with Nocodazole); conditions: Nocodazole 16 h, then test compound 1 h; read-out: Biological Assay 4:2: H2A Abrogation IC50
From the text: Biological Assay 4.2: Abrogation-Assay
This assay measures the inhibition of histone 2A phosphorylation, which was induced by pre-treatment of the cells with Nocodazole, by a Bub1 kinase inhibitor.

[5] = target: T1, (recombinant) catalytic domain of human Bub1 (amino acids 704-1085); experiment: Equilibrium probe competition assay (TR-FRET kinase binding assay); conditions: read-out: IC50 (Assay 5, probe competition)
From the text: Equilibrium Probe Competition Assay:
Bub1 binding affinity of compounds described in the present invention were quantified using a time-resolved fluorescence energy transfer (TR-FRET) kinase binding assay which measures displacement of the synthetic fluorescent probe 5-[({2-[2-({2-[1-(4-ethoxy-2,6-difluorobenzyl)-1H-indazol-3-yl]-4-(pyridin-4-ylamino)pyrimidin-5-yl}oxy)ethoxy]ethyl}carbamothioyl)amino]-2-(6-hydroxy-3-oxo-3H-xanthen-9-yl)benzoic acid (5-5-1) by the (recombinant) catalytic domain of human Bub1 (amino acids 704-1085). The enzyme was expressed in Hi5 insect cells with N-terminal 6×His/AviTag@ seqences, purified by affinity-(Ni-NTA) and size exclusion chromatography and site-specific biotinylated ex-vivo using a commercially available kit (Avidity).
In a typical assay 11 different concentrations of each compound (0.1 nM, 0.33 nM, 1.1 nM, 3.8 nM, 13 nM, 44 nM, ˜0.15 μM, ˜0.51 μM, ˜1.7 μM, 5.9 μM and 20 μM) were tested in duplicate within the same microtiter plate. To this end, 100-fold concentrated compound solutions (in DMSO) were made by serial dilution (1:3.4) of freshly prepared 2 mM stocks in a clear low volume 384-well source microtiter plate (Greiner Bio-One, Frickenhausen, Germany), from which 50 nl of compounds were transferred into a black low volume test microtiter plate from the same supplier. Subsequently 2 μL of a solution containing biotinylated Bub1 (the final concentration of Bub1 was adjusted depending on the activity of the enzyme lot in order to be within the linear dynamic range of the assay: typically ˜200 pM were used) and 1 nM Streptavidin Terbium Cryptate (Cisbio, No. 610SATLB) in aqueous assay buffer [50 mM Tris/HCl pH 7.5, 200 mM potassium chloride (KCl), 1.0 mM dithiothreitol (DTT), 0.1 mM sodium ortho-vanadate, 1% (v/v) glycerol, 0.01% (w/v) bovine serum albumine (BSA), 0.005% (v/v) Triton X-100 (Sigma), were added to the compounds in the test plate and the mixture was incubated for 15 min at 22′C to allow pre-equilibration of the putative enzyme-inhibitor complexes before the start of the probe competition reaction, which was initiated by the addition of 3 μL 1.67-fold concentrated solution (in assay buffer) of 5-5-1 (final concentration: 1.5 nM). The resulting mixture (5 μL final volume) was Incubated at 220 during 0, 15, 30, 60, 120, 240 and 1440 min. After each time point the resonance energy transfer from the Streptavidin Tb cryptate to the 3′,6′-dihydroxy-3H-spiro[2-benzofuran-1,9′-xanthen]-3-one moiety of 5-5-1 was measured in order to quantify the amount of fluorescent probe displaced by the test compounds. To this end, the fluorescence emissions at 520 nm and 490 nm after excitation at 330-350 nm were measured in a Pherastar FS TR-FRET plate reader, (BMG Lab technologies, Offenburg, Germany) and the ratio of the emissions (520 nm/490 nm) was taken as Indicator for the amount of Bub1/5-5-1 equilibrium complexes. The data were normalized using two sets of control wells for high-(=enzyme reaction without inhibitor=0%=Minimum inhibition) and low-(=all assay components without enzyme=100%=Maximum inhibition) Bub1 activity. IC50 values were calculated by fitting the normalized inhibition data to a 4-parameter logistic equation (Minimum, Maximum, IC50, Hill; Y=Max+(Min−Max)/(1+(X/IC50)Hill)).

[6] = system: histone 2A phosphorylation (kinase activity of Bub1); experiment: H2A Formation-Assay (cell-based mechanistic assay, co-treatment with Nocodazole); conditions: 16 h, read-out: Biological Assay 4.1: H2A Formation IC50

SMILES	IC50 [1] [nM]	IC50 [2] [nM]	IC50 [3] [nM]	IC50 [4] [nM]	IC50 ([5]; Time 15 min) [nM]	IC50 ([5]; Time 30 min) [nM]	IC50 ([5]; Time 60 min) [nM]	IC50 ([5]; Time 90 min) [nM]	IC50 ([5]; Time 120 min) [nM]	IC50 ([5]; Time 240 min) [nM]	IC50 ([5]; Time 1440 min) [nM]	IC50 [6] [nM]
CCOc1cc(F)c(Cn2nc(-c3ncc(OCCCO)c(Nc4ccncc4Cl)n3)c3ccccc32)c(F)c1 [Example 2-1-6, 3-{[4-[(3-chloropyridin-4-yl)amino]-2-[1-(4-ethoxy-2,6-difluorobenzyl)-1H-indazol-3-yl]pyrimidin-5-yl}oxy)propan-1-ol]	8.3	5900	120	58	1.7	0.87	0.85	1.2	0.38	0.31	0.2	45
CCOc1cc(F)c(Cn2nc(-c3ncc(OCCCO)c(Nc4ccnc(NC(C)=O)c4)n3)c3ccccc32)c(F)c1 [Example 2-1-5, N-[4-({2-[1-(4-ethoxy-2,6-difluorobenzyl)-1H-indazol-3-yl]-5-(3-hydroxypropoxy)pyrimidin-4-yl}amino)pyridin-2-yl]acetamide]	3.5	> 10000	100	4.4	0.59	0.49	0.32	0.26	0.2	0.16	0.098	28
CCOc1cc(F)c(Cn2nc(-c3ncc(OCCCO)c(Nc4ccncn4)n3)c3ccccc32)c(F)c1 [Example 2-1-9, 3-({2-[1-(4-ethoxy-2,6-difluorobenzyl)-1H-indazol-3-yl]-4-(pyrimidin-4-ylamino)pyrimidin-5-yl}oxy)propan-1-ol]	3.8	> 10000	330	33								171
Cc1nccc(Nc2nc(-c3nn(Cc4c(F)cc(OCC(F)(F)F)cc4F)c4ccccc34)ncc2OCCCO)n1 [Example 2-1-19, 3-[(2-{1-[2,6-difluoro-4-(2,2,2-trifluoroethoxy)benzyl]-1H-indazol-3-yl}-4-[(2-methylpyrimidin-4-yl)amino]pyrimidin-5-yl)oxy]propan-1-ol]	21	> 10000	120	2.5								3.5
CCOc1cc(F)c(Cn2nc(-c3ncc(OCCCO)c(Nc4ccncc4C4CC4)n3)c3ccccc32)c(F)c1 [Example 2-1-3, 3-({4-[(3-cyclopropylpyridin-4-yl)amino]-2-[1-(4-ethoxy-2,6-difluorobenzyl)-1H-indazol-3-yl]pyrimidin-5-yl}oxy)propan-1-ol]	11	3700	54	0.93								0.97
Cc1nccc(Nc2nc(-c3nn(Cc4c(F)cc(OCC5CC5)cc4F)c4ccccc34)ncc2OCCCO)n1 [Example 2-1-24, 3-[(2-{1-[4-(cyclopropylmethoxy)-2,6-difluorobenzyl]-1H-indazol-3-yl}-4-[(2-methylpyrimidin-4-yl)amino]pyrimidin-5-yl)oxy]propan-1-ol]	23	9940	330	0.85								2.1
OCCCOc1cnc(-c2nn(Cc3c(F)cc(OCC(F)(F)F)cc3F)c3ccccc23)nc1Nc1ccncc1Cl [Example 2-1-20, 3-[(4-[(3-chloropyridin-4-yl)amino]-2-{1-[2,6-difluoro-4-(2,2,2-trifluoroethoxy)benzyl]-1H-indazol-3-yl}pyrimidin-5-yl)oxy]propan-1-ol]	13	6200	98	> 1000								110
CCOc1cc(F)c(Cn2nc(-c3ncc(OCCCO)c(Nc4cc(C)nc(C)n4)n3)c3ccccc32)c(F)c1 [Example 2-1-14, 3-({4-[(2,6-Dimethylpyrimidin-4-yl)amino]-2-[1-(4-ethoxy-2,6-difluorobenzyl)-1H-indazol-3-yl]pyrimidin-5-yl}oxy)propan-1-ol]	> 20000	> 10000	39	0.92								8.7
Cc1nccc(Nc2nc(-c3nn(Cc4c(F)cc(OCC(F)F)cc4F)c4ccccc34)ncc2OCCCO)n1 [Example 2-1-21, 3-[(2-{1-[4-(2,2-difluoroethoxy)-2,6-difluorobenzyl]-1H-indazol-3-yl}-4-[(2-methylpyrimidin-4-yl)amino]pyrimidin-5-yl)oxy]propan-1-ol]	11	> 10000	170	56								26
